Measurements taken from BindingDB's records for patent US11352330 (Hoffmann-La Roche, 2022).

Target: Autotaxin (Homo sapiens, UniProt Q13822)
Assay: Human ATX Enzyme Inhibition Assay
Description: Assay working solutions were made as follows:Assay buffer (50 mM Tris-HCl, 140 mM NaCl, 5 mM KCl, 1 mM CaCl2, 1 mM MgCl2, 0.01% Triton-X-100, pH 8.0;ATX solution: ATX (human His-tagged) stock solution (1.08 mg/mL in 20 mM bicine, pH 8.5, 0.15 M NaCl, 10% glycerol, 0.3% CHAPS, 0.02% NaN3), diluted to 1.4-2.5× final concentration in assay buffer;MR121 substrate solution: MR121 substrate stock solution (800 μM MR121 substrate in DMSO), diluted to 2-5× final concentration in assay buffer.Test compounds (10 mM stock in DMSO, 8 μL) were obtained in 384 well sample plates (Corning Costar #3655) and diluted with 8 μL DMSO. Row-wise serial dilutions were made by transferring 8 μL cpd solution to the next row up to row O. The compound and control solutions were mixed five times and 2 μL were transferred to 384 well assay plates (Corning Costar #3702). Then, 15 μL of 41.7 nM ATX solution was added (30 nM final concentration), mixed five times and then incubated for 15 minutes at 30° C. 10 μL of MR121 substrate solution was added (1 μM final concentration), mixed 30 times and then incubated for 15 minutes at 30° C.

Work on COc1ccccc1-c1cc(Cl)c(C)cc1OCc1n[nH]c(=O)n1C [US11352330, Example B56] yielded an IC50 of 15 nM.
